# Laboratory results reported in patent US20110159507A1, “METHOD FOR DETECTING THE DRUG EFFECTS OF DNA METHYLATION-INHIBITORS” (SCHOOL JURIDICAL PERSON THE KITASATO INSTITUTE, priority 2008, published 2011).
# What was measured:
# [1] = system: K562 PU.1 KD cells (PU 2-10 and PU 3-10); test: cell viability assay (WST-8), percentages of dead cells after drug administration, PU.1 gene-knockdown cells vs control cells; format: cell-based; settings: for drug sensitivity of PU.1 gene-knockdown cells to the DNA methylation inhibitor: K562 PU.1 KD cells
# Excerpt: FIGS. 1(a) and 1(b) illustrate and show the results of establishment experiments of PU.1-knockdown lines (K562 PU.1 KD cells). That is, a PU.1 siRNA expression vector (Takara, Ohtsu, Japan) and its control vector (Takara) were introduced into K562 cells as leukemia cell lines in accordance with the method described in the document (Takahashi Set al., British Journal of Haematology, 2005 (130), p 428-436). Specifically, in the method, electroporation was employed to introduce the expression vector and its control vector into leukemia cell lines (K562 cells). The introduced cells were cultured in an RPMI medium in the presence of 1 μg/mL puromycin to select cells that constitutively express PU.1 siRNAs and isolate the cells by a limiting dilution method. The isolated control cells (Control K562) (V5 and V6) and PU.1-knockdown cells (2-10 and 3-10) (K562 PU.1 KD cells) were used to prepare proteins based on a conventional method. The proteins were subjected to SDS-PAGE electrophoresis, then transferred to a membrane, and blotted with a PU.1 antibody and β-actin useful for the estimation of protein amounts (FIG. 1(a)).
# Two kinds of PU.1 gene-knockdown cells (PU 2-10 and PU 3-10) and control cells (vec 5 and vec 6) were compared for their sensitivities to 5-azadc (AZA) (% effect: percentages of dead cells after drug administration). In other words, the respective cells were seeded in a 96-well plate at a density of 2,000 cells/well, and 5-azadc (AZA) was added into the well at concentrations of 0.2, 1, 3.9, 15.6, 62.5, 250, and 1,000 nM. Then, cell viability assays were performed after 96 hours. In the assays, 10 μL of a WST-8 reagent (Dojindo, Japan) were added to a well in which 100 μL of a cell culture medium had been loaded, culture was performed in a 5% CO2 incubator at 37° C. for 2 hours, and the absorbance is then measured using a microplate reader at a wavelength of 490 nm, to thereby measure cell viability. FIG. 7 illustrates the results in terms of percentages of dead cells (% effect).
# [2] = system: K562 PU.1 OE cells (A2 and H8); test: cell viability assay (WST-8), percentages of dead cells after drug administration, PU.1 gene-overexpressing cells vs control cells; format: cell-based
# Excerpt: FIGS. 3(a) and 3(b) illustrate and show the results of establishment experiments of PU.1-overexpressing cell lines (K562 PU.1 OE cells). That is, the PU.1 expression vector described in the literature was used (Inomata et al., Leukemia Research 30 (2006) p 659-664). The expression vector and its control vector pcDNA3.1 (Invitrogen, CA) were introduced into K562 cells as leukemia cell lines in accordance with the method described in literature (Takahashi S et al., British Journal of Haematology, 2005 (130), p 428-436). The introduced cells were cultured in an RPMI medium in the presence of 400 μg/mL Neomycin to select cells that constitutively express PU.1 and isolate the cells by a limiting dilution method. […]
# Two kinds of PU.1 gene-knockdown cells (PU 2-10 and PU 3-10) and control cells (vec 5 and vec 6) were compared for their sensitivities to 5-azadc (AZA) (% effect: percentages of dead cells after drug administration). […] In the assays, 10 μL of a WST-8 reagent (Dojindo, Japan) were added to a well in which 100 μL of a cell culture medium had been loaded, culture was performed in a 5% CO2 incubator at 37° C. for 2 hours, and the absorbance is then measured using a microplate reader at a wavelength of 490 nm, to thereby measure cell viability. […]
Compound,drug sensitivity of PU.1 gene-knockdown cells to the DNA methylation inhibitor [1],"percentages of dead cells (% effect): higher than in control cells (vec 1 and vec 2) by ([2]; A2 and H8, same experiment as FIG. 7 (0.2-1,000 nM, 96 hours), FIG. 8)",drug sensitivity of PU.1 gene-overexpressing cells to the DNA methylation inhibitor ([2]; K562 PU.1 OE cells),drug sensitivity of PU.1 gene-knockdown cells to the DNA methylation inhibitor ([1]; listed as 5-aza-2′-deoxycytidine),"percentages of dead cells (% effect): lower than in control cells (vec 5 and vec 6) by ([1]; PU 2-10 and PU 3-10, 0.2-1,000 nM, 96 hours, FIG. 7)"
Nc1ncn([C@@H]2O[C@H](CO)[C@@H](O)[C@H]2O)c(=O)n1 [5-azacytidine],resistant,,,,
"Nc1ncn([C@H]2C[C@H](O)[C@@H](CO)O2)c(=O)n1 [5-azadc, 5-aza-2′-deoxycytidine]",resistant and poorly sensitive,about 20%,highly sensitive,resistant,about 20%
